Like-named read-outs stand apart in the source and are kept apart here.
Legend:
[1] = molecular target: Recombinant human His-tagged Kat6a protein (amino acids 194-810) (Homo sapiens (Human), UniProt Q92794); test: Kat6a activity assay (TR-FRET, acetylation of biotinylated Histone-H4-derived peptide); assay type: biochemical; conditions: 60 mins at 22° C., read-out: KAT6A-DPF/HAT domain IC50 [mol/l] (arithmetic mean)
Description: Kat6a inhibitory activities of the compounds described in the present invention were quantified using a Fluorescence Resonance Energy Transfer (TR-FRET) assay which measures acetylation of a synthetic, biotinylated Histone-H4-derived peptide by the enzyme.
Recombinant human His-tagged Kat6a protein (amino acids 194-810), was purified in-house from Baculovirus-infected insect cells (Sf9). Histone H4 peptide (amino acids 1-24, […]-VLRD-K(Btn)-amide), which was used as substrate, was synthesized by Biosyntan GmbH, Berlin, Germany. Acetyl Coenzyme A was purchased from Sigma-Aldrich (#A-2056).
Kat6a was incubated for 60 mins at 22° C. in the presence of different concentrations of test substances (0 μM, and within the range 0.01-20 μM) in assay buffer [25 mM Tris/HCl pH 8, 1 mM EGTA, 2.5 mM Glutathion, 0.02% Chicken Albumin, 0.05% Pluronic F127, 25 mM NaCl, 220 nM H4 peptide and 600 nM Acetyl Coenzym A].
The reaction was stopped by addition of Detection Solution (25 mM HEPES pH 7.5, 0.1% BSA, 22 nM SAXL665 (Cisbio #610SAXLE), 100 μM Anacardic Acid (Enzo #ALX-270-381), 1 nM Anti-Histone H4 (ACETYL K8) Antibody (ABCAM #AB15823) and 0.5 nM Anti-Rabbit IgG Eu (Perkin Elmer #AD0083).
The fluorescence emission at 620 nm and 665 nm after excitation at 330-350 nm was measured in a TR-FRET measuring instrument, for instance a Rubystar or a Pherastar (both from BMG Lab Technologies, Offenburg, Germany) or a Viewlux (Perkin-Elmer). The ratio of the emission at 665 nm and at […] was used as indicator of the amount of acetylated peptide.
The resulting data (ratio) were normalized, taking 0% inhibition as the mean value of control measurements where all reagents were included. In this case 50 nl DMSO were used instead of compounds. […] IC50 values were determined by regression analysis based on a 4 parameter equation (minimum, maximum, ICM, Hill; Y=Max+(Min−Max)/(1+(X/ICso) Hill) using the Screener Software (Genedata).
Table 5 depicts the IC50 values of selected examples in biochemical KAT6A and KAT6B3 assays.

[2] = system: ESR1 transcription (luciferase signal in MVLN cells); test: Repression of ESR1 transcription, luciferase reporter in MVLN cells; assay type: cell-based; conditions: inhibition of luciferase signal in MVLN cells, arithmetic mean
Description: Repression of ESR1 Transcription Upon Treatment of Cells with Compounds
KAT6A controls transcription of the ESR1 gene in breast cancer cells. Compound treatment that interferes with this mechanism was quantified using MVLN cells. These cells constitutively express the ER and are stably transfected with the luciferase (LUC) reporter gene and the corresponding hormone responsive element derived from the 5′-flanking region of the Xenopus Vitellogenin A2 gene (Pons et al., 1990, Demirpense et al., 1993, Joyeux et al., 1993). The repressive effect on ERα transcription activity of a test chemical is directly related to the luciferase measured in the lysate of treated MVLN cells.
Each sample was prepared as duplicate and rim wells were excluded. For luciferase signal determination 100 μl of a 1:1 mixture of Steadylite plus (Perkin Elmer; 6016759) and assay medium was added after 24 h for 15 minutes and measured in Victor X3 (Perkin Elmer). To exclude any effects caused by cell loss during the treatment, cell density was determined using Alamar Blue (Invitrogen; DAL1100). Prior to the luciferase measurement 10 μl Alamar Blue were added to each well and the plates were incubated for 2 h in the incubator. Then fluorescence was measured with Victor X3 (Perkin Elmer) at 530 nm/590 nm.

[3] = system: ZR-75-1 cells; test: Proliferation assay ZR-75-1 (Alamar Blue, 144 h); assay type: cell-based; conditions: arithmetic mean, read-out: ZR75-1 proliferation assay, EC50 [M] (arithmetic mean)
Description: Proliferation Assays for Compound Characterization
For compound characterization cell survival assays were routinely run in two cell lines. ZR-75-1 is a breast carcinoma cell line containing a focal KAT6A amplification and high KAT6A protein expression. Proliferation of this cell line is inhibited upon treatment with KAT6A inhibitors. As a negative control cell line MDA-MB-436 were used. These cells carry a […] deletion of the KAT6A gene, have a low KAT6A protein expression and are not growth inhibited upon treatment with KAT6A inhibitors.
For measurements cell lines were plated at the below indicated concentration per […] in 96-well plates in a humidified incubator at 37° C. and 5% CO2.
ZR-75-1 (ATCC, CRL-1500; breast carcinoma); 3000 cells per well; culture medium: RPMI 1640 (Biochrom #FG 1215) medium containing 2.5% FBS (Biochrom #S0615).
24 hours later, cells were treated with compounds (stock solution, 10 mM in DMSO) using the HP D300 Digital Dispenser in a concentration range of 2.0×10E-5 M to 2.0×10E-9 M in a single-dot curve with 9 dilutions and a DMSO concentration of 0.2%. Each sample was prepared as triplicate and rim wells were excluded. Plates were incubated at 37° C. and 5% CO2 for 144 h. Cell viability was measured by adding 10 μL of Alamar Blue Reagent (Invitrogen #DAL 1100) and plates were incubated for 2 h at 37° C. and 5% CO2. Fluorescence was measured at 590 nm wavelength with a Tecan Spark or Victor X3 MTP-Reader (PerkinElmer).

Recombinant human His-tagged Kat6a protein (amino acids 194-810), sequence (Q92794 194-810): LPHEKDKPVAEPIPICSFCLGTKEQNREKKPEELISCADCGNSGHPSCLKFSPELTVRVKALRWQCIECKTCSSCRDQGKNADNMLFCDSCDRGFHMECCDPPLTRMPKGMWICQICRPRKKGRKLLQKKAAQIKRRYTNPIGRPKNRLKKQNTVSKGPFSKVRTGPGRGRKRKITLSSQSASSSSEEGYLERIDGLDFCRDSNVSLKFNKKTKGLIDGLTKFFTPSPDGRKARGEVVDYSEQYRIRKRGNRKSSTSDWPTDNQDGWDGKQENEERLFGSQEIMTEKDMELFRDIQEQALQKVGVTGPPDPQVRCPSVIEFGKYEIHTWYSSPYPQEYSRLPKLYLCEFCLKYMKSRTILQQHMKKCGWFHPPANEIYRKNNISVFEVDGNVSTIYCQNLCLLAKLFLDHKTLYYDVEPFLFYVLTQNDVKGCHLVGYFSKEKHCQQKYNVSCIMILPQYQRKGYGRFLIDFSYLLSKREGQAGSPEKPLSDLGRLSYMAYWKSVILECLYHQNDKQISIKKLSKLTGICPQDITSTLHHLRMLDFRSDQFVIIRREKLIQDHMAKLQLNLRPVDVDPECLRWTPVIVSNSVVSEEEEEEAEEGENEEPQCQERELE

SMILES	IC50 [1] [nM]	IC50 ([2]; Homo sapiens, MVLN) [nM]	EC50 ([3]; Homo sapiens, ZR-75-1, 144 h) [M]	EC50 [3] [M]	IC50 [2] [nM]
CC(c1ccc(Cl)cc1Cl)S(=O)(=O)NC(=O)c1cc2ccc(N(C)C)cc2o1 (racemic) [Example 55, N-[1-(2,4-Dichlorophenyl)ethanesulfonyl]-6-(dimethylamino)-1-benzofuran-2-carboxamide (rac)]	86.4	–	–	–	–
CC(c1c(Cl)cccc1Cl)S(=O)(=O)NC(=O)c1cc2ccc(N(C)C)cc2o1 (racemic) [Example 56, N-[1-(2,6-Dichlorophenyl)ethanesulfonyl]-6-(dimethylamino)-1-benzofuran-2-carboxamide (rac)]	67.6	–	–	–	–
CC(Oc1cccc(OC2CCC2)c1S(=O)(=O)NC(=O)c1cc2ccc(N(C)C)cc2o1)C(F)(F)F (racemic) [Example 84, N-[2-(Cyclobutyloxy)-6-{[(2S)-1,1,1-trifluoropropan-2-yl]oxy}benzene-1-sulfonyl]-6-(dimethylamino)-1-benzofuran-2-carboxamide (rac)]	40.6	226	–	–	–
CN(C)c1ccc2cc(C(=O)NS(=O)(=O)c3ccccc3Br)oc2c1 [Example 18, N-(2-Bromobenzene-1-sulfonyl)-6-(dimethylamino)-1-benzofuran-2-carboxamide]	129	–	–	–	–
CN(C)c1ccc2cc(C(=O)NS(=O)(=O)c3ccccc3-c3ccccc3)oc2c1Br [Example 50, N-([Biphenyl]-2-ylsulfonyl)-7-bromo-6-(dimethylamino)-1-benzofuran-2-carboxamide]	4230	–	–	–	–
CN(C)c1ccc2cc(C(=O)NS(=O)(=O)c3ccccc3C(F)(F)F)oc2c1 [Example 54, 6-(Dimethylamino)-N-[2-(trifluoromethyl)benzene-1-sulfonyl]-1-benzofuran-2-carboxamide]	430	–	–	–	–
CCOc1ccc(Br)cc1S(=O)(=O)NC(=O)c1cc2ccc(N(C)C)cc2o1 [Example 57, N-(5-Bromo-2-ethoxybenzene-1-sulfonyl)-6-(dimethylamino)-1-benzofuran-2-carboxamide]	38.2	–	–	–	–
CCOc1ccncc1S(=O)(=O)NC(=O)c1cc2ccc(N(C)C)cc2o1 [Example 58, 6-(Dimethylamino)-N-(4-ethoxypyridine-3-sulfonyl)-1-benzofuran-2-carboxamide]	534	–	–	–	–
CN(C)c1ccc2cc(C(=O)NS(=O)(=O)c3ccccc3O)oc2c1 [Example 59, 6-(Dimethylamino)-N-(2-hydroxybenzene-1-sulfonyl)-1-benzofuran-2-carboxamide]	86.1	–	–	–	–
CCOC(=O)N1CCC(S(=O)(=O)NC(=O)c2cc3ccc(N(C)C)cc3o2)CC1 [Example 60, Ethyl-4-{[6-(dimethylamino)-1-benzofuran-2-carbonyl]sulfamoyl}piperidine-1-carboxylate]	3200	–	–	–	–
CN(C)c1ccc2cc(C(=O)NS(=O)(=O)c3c(OCc4ccccc4)cccc3OC3CCC3)oc2c1 [Example 69, N-[2-(Benzyloxy)-6-(cycolbutyloxy)benzene-1-sulfonyl]-6-(dimethylamino)-1-benzofuran-2-carboxamide]	4.5	52.1	3.84e-07	–	–
CN(C)c1ccc2cc(C(=O)NS(=O)(=O)c3ccc([N+](=O)[O-])c4cccnc34)oc2c1 [Example 92, 6-(Dimethylamino)-N-(5-nitroquinoline-8-sulfonyl)-1-benzofuran-2-carboxamide]	151	394	3.43e-07	–	–
CCOc1ccc(C(C)C)cc1S(=O)(=O)NC(=O)c1cc2c(F)cc(N(C)C)cc2o1 [Example 107, 6-(Dimethylamino)-N-[2-ethoxy-5-(propan-2-yl)benzene-1-sulfonyl]-4-fluoro-1-benzofuran-2-carboxamide]	2.29	8.63	4.49e-08	–	–
CN(C)c1ccc2cc(C(=O)NS(=O)(=O)c3ccc(F)c(F)c3F)oc2c1 [Example 153]	906	2720	2.77e-06	–	–
Cc1cnc(Cl)c(S(=O)(=O)NC(=O)c2cc3ccc(N(C)C)cc3o2)c1 [Example 154]	3080	11500	7e-06	–	–
CC(C)Nc1cccc(F)c1S(=O)(=O)NC(=O)c1cc2ccc(N(C)C)cc2o1 [Example 155]	932	1930	7.62e-06	–	–
CN(C)c1ccc2cc(C(=O)NS(=O)(=O)c3cccnc3Cl)oc2c1 [Example 156]	3530	971	4.97e-06	–	–
Cc1cccc(C2CCCC2)c1S(=O)(=O)NC(=O)c1cc2ccc(N(C)C)cc2o1 [Example 157]	3180	6450	9.45e-06	–	–
CN(C)c1ccc2cc(C(=O)NS(=O)(=O)c3c(F)cccc3C3CCC3)oc2c1 [Example 158]	684	1490	7.93e-06	–	–
Cc1ccc(S(=O)(=O)NC(=O)c2cc3ccc(N(C)C)cc3o2)c(OC(F)F)c1 [Example 159]	233	519	6.97e-07	–	–
CN(C)c1ccc2cc(C(=O)NS(=O)(=O)c3c(F)cccc3OCC3CC3)oc2c1 [Example 160]	324	741	5.7e-06	–	–
CN(C)c1ccc2cc(C(=O)NS(=O)(=O)c3cc(CO)ccc3OC(F)(F)F)oc2c1 [Example 161]	6770	> 20000	> 2e-05	–	–
CCOc1c(F)cccc1S(=O)(=O)NC(=O)c1cc2ccc(N(C)C)cc2o1 [Example 169, 6-(Dimethylamino)-N-(2-ethoxy-3-fluoro-phenyl)sulfonyl-benzofuran-2-carboxamide]	335	340	–	–	–
CCOc1cc(F)ccc1S(=O)(=O)NC(=O)c1cc2ccc(N(C)C)cc2o1 [Example 171, 6-(Dimethylamino)-N-(2-ethoxy-4-fluoro-phenyl)sulfonyl-benzofuran-2-carboxamide]	94.9	102	–	–	–
CCOc1ccc(Oc2ccccc2)cc1S(=O)(=O)NC(=O)c1cc2ccc(N(C)C)cc2o1 [Example 174, 6-(Dimethylamino)-N-(2-ethoxy-5-phenoxy-phenyl)sulfonyl-benzofuran-2-carboxamide]	11.8	123	–	–	–
Cc1ccc2cccc(S(=O)(=O)NC(=O)c3cc4cc(C#N)c(N(C)C)cc4o3)c2n1 [Example 209, 5-Cyano-6-(dimethylamino)-N-(2-methylquinoline-8-sulfonyl)-1-benzofuran-2-carboxamide]	–	> 20000	9.4e-06	–	–
CN(C)c1ccc2cc(C(=O)NS(=O)(=O)c3ccccc3-c3ccccc3)oc2c1 [Example 226]	–	–	–	2.46e-07	180
